In PMC1940322, “The Effect of PPARα, PPARδ, PPARγ, and PPARpan Agonists on Body Weight, Body Mass, and Serum Lipid Profiles in Diet-Induced Obese AKR/J Mice” (PPAR Research, 2007):

Target: T1, murine PPARδ (Mus musculus, UniProt P35396)
T1 construct: expressed in transfected cells; host or cells: CV-1 cells
T1 sequence (P35396 210-438 limits assumed): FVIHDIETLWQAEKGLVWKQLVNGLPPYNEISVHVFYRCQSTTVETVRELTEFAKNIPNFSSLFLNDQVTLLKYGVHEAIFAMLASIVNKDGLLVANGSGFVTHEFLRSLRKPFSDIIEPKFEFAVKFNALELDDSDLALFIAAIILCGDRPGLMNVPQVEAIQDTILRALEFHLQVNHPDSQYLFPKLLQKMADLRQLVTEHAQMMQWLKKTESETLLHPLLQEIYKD
Assay: PPAR-GAL4 transient transfection transactivation assay (SPAP reporter) in CV-1 cells, PPARδ
Format: cell-based
Method: The functional potency of selected ligands was evaluated using a transient transfection assay in CV-1 cells. The ligand binding domains for murine PPARα, PPARδ, and PPARγ were fused to the yeast transcription factor GAL4 DNA binding domain as a chimera. CV-1 cells were propagated and transiently transfected with expression vectors for the respective PPAR chimera as previously described.

COC(=O)c1ccccc1N[C@@H](Cc1ccc(OCCc2nc(-c3ccccc3)oc2C)cc1)C(=O)O [GW7845]
EC50 (CV-1 cells, GAL4 chimera, read-out: mPPARδ, murine receptor activation EC50): 10 µM
mPPARδ %Max (maximal activation vs reference comparator): 12%
